Assay results reported in patent US11530229B2, “Cyano cyclobutyl compounds for CBL-B inhibition and uses thereof” (Nurix Therapeutics, Inc., priority 2019, dated 2022).
Like-named read-outs stand apart in the source and are kept apart here.

Experiments:
[1] = target: Cbl-b (Homo sapiens (Human), UniProt Q13191); assay: Cbl-b displacement assay (Cbl-b inhibition assay), Biological Example 1; assay type: binding
In short: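 Probe displacement read as TR-FRET (520/620 nm) after 1 h with 2 nM streptavidin-terbium and 150 nM BODIPY FL-labelled inhibitor probe, about EC40. Before that, compound in 1% DMSO sat 1 h at room temperature with N-Avitag biotinylated Cbl-b 36–427, 0.5 nM (High) or 0.125 nM (Low), in pH 7.5 HEPES buffer.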

[2] = tested on: primary human total T-cells; assay: T-cell activation, IL-2 secretion, Biological Example 2; assay type: cell-based; settings: 48 hours, fold change over baseline; for fold induction at 0.3 µM: 0.3 μM inhibitor; for fold induction at 1 µM: 1 μM inhibitor; for fold induction at 3 µM: 3 μM inhibitor
[3] = tested on: primary human total T-cells; assay: T-cell activation, CD25 surface staining, Biological Example 2; assay type: cell-based; settings: 48 hours, fold change over baseline; for fold induction at 0.3 µM: 0.3 μM inhibitor; for fold induction at 1 µM: 1 μM inhibitor; for fold induction at 3 µM: 3 μM inhibitor
[4] = anti-CD3 and anti-CD28 co-stimulation
[5] = anti-CD3 and anti-CD28 co-stimulation, read-out: IL-2 secretion CD3/CD28 1 μM
[6] = anti-CD3 stimulation alone, read-out: IL-2 secretion CD3 1 μM
[7] = anti-CD3 and anti-CD28 co-stimulation, read-out: CD25 staining CD3/CD28 1 μM
[8] = anti-CD3 stimulation alone, read-out: CD25 staining CD3 1 μM
[9] = 0.125 nM Cbl-b final concentration (Low), read-out: Cbl-b activity IC50 (Low)

Sequence of Cbl-b (Q13191 36-427): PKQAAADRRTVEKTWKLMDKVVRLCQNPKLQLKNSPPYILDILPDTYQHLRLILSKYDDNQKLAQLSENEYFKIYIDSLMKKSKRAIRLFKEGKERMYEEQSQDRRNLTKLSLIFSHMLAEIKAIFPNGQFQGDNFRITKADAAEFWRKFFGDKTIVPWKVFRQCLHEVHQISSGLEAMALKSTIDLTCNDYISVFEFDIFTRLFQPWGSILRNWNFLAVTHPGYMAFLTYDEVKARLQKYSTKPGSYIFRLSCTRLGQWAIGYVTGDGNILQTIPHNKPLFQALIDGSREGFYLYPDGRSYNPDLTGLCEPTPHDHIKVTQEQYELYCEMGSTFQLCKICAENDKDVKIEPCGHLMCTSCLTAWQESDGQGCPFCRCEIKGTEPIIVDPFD

Row | SMILES | IC50 ([1]; 0.5 nM Cbl-b final concentration (High), read-out: Cbl-b activity IC50 (High)) | fold induction at 0.3 µM [2, 4] | fold induction at 1 µM [2, 5] | fold induction at 1 µM [2, 6] | fold induction at 3 µM ([2]; anti-CD3 stimulation alone) | fold induction at 0.3 µM [3, 4] | fold induction at 1 µM [3, 7] | fold induction at 1 µM [3, 8] | fold induction at 3 µM ([3]; anti-CD3 stimulation alone) | IC50 [1, 9]
1 | Cn1cnnc1C[C@]1(c2cccc(NC(=O)c3cc(CN4CCC5(CC5)C4)cc(C4CC4)n3)c2)C[C@H](C#N)C1 [Compound 53, 4-((5-azaspiro[2.4]heptan-5-yl)methyl)-N-(3-((1r,3r)-3-cyano-1-((4-methyl-4H-1,2,4-triazol-3-yl)methyl)cyclobutyl)phenyl)-6-cyclopropylpicolinamide] | < 1 nM | 15 to 20 | 15 to 20 | 0.4 to 0.85 | 0.4 to 0.85 | ≤ 1.24 | ≤ 1.24 | 1 to 1.15 | 1 to 1.15 | –
2 | C[C@@H]1C[C@H](C)CN(Cc2cc(C(=O)Nc3cccc([C@]4(Cc5nncn5C)C[C@@H](C#N)C4)c3)nc(C3CC3)c2)C1 [Compound 54] | – | > 20 | > 20 | > 0.85 | > 0.85 | 1.24 to 1.39 | 1.24 to 1.39 | ≤ 1 | ≤ 1 | < 1 nM
3 | C[C@H]1CCCN(Cc2cc(C(=O)Nc3cccc([C@]4(Cc5nncn5C)C[C@@H](C#N)C4)c3)nc(C3CC3)c2)C1 [Compound 55, N-(3-((1r,3S)-3-cyano-1-((4-methyl-4H-1,2,4-triazol-3-yl)methyl)cyclobutyl)phenyl)-6-cyclopropyl-4-(((S)-3-methylpiperidin-1-yl)methyl)picolinamide] | – | > 20 | > 20 | > 0.85 | > 0.85 | 1.24 to 1.39 | 1.24 to 1.39 | ≤ 1 | ≤ 1 | < 1 nM
4 | C[C@@H]1CN(Cc2cc(C(=O)Nc3cccc([C@]4(Cc5nncn5C)C[C@@H](C#N)C4)c3)nc(C3CC3)n2)CCC1(F)F [Compound 57, N-(3-((1r,3R)-3-cyano-1-((4-methyl-4H-1,2,4-triazol-3-yl)methyl)cyclobutyl)phenyl)-2-cyclopropyl-6-(((R)-4,4-difluoro-3-methylpiperidin-1-yl)methyl)pyrimidine-4-carboxamide] | – | 15 to 20 | > 20 | 0.4 to 0.85 | > 0.85 | 1.24 to 1.39 | 1.24 to 1.39 | 1 to 1.15 | ≤ 1 | < 1 nM
